Publication PMC12040169 (PLOS Biology, 2025)

assay: in vitro; details: human, hela cells, % viability

Point of comparison: `CSc1ccccc1CNC(=O)Cn1nnc(-c2ccc(CN3CCC(C)CC3)cc2)n1` [CBK144573C], viability at 28.5 h, 10 µM 93.2%. Against it:
- O=c1cc(-c2ccccc2)nc(N2CCOCC2)[nH]1 [CBK003840] — higher, 93.9%
- Cc1nc2c(c(=O)c3ccccc3n2C)c(=O)n1Cc1ccco1 [CBK287776] — higher, 100%
- COC(=O)c1csc2c1NC1(CCC1)[C@@H]1C[C@@H](O)[C@@H](O)[C@H]21 [CBK303255] — higher, 119%
- Cc1ccccc1-c1ccccc1CC1(C(N)=O)CCN(C(=O)CCc2ccccc2)CC1 [CBK285725] — higher, 102%
- O=[N+]([O-])c1ccc(-c2nc(NCc3cccnc3)c3ccccc3n2)cc1 [CBK264788] — higher, 100%
- Cc1cc(=O)oc2ccc(OCC(=O)N(Cc3ccc(F)cc3)Cc3ccco3)cc12 [CBK266639] — higher, 103%
- Cc1ccc(NC(=O)c2cnc3ccc(C)cn3c2=O)cc1 [CBK287285] — lower, 90.2%
- CN(C)CC(=O)NC(Cc1ccsc1)c1nccs1 (stereo not drawn) [CBK284801] — lower, 91.4%
- CNC(=O)CSc1nccnc1N1CCCC1 [CBK107748] — higher, 93.6%
- CN(C)Cc1ncccc1OCCO [CBK001411C] — higher, 111%
- O=[N+]([O-])c1cc(/C=N/Nc2nnn[nH]2)ccc1N1CCOCC1 [CBK262199] — higher, 99.7%
- O=C1CC[C@H](NC(=O)c2cccs2)C(c2cccnc2)N1 (stereo partly drawn) [CBK282901] — higher, 98.5%
- CC(C)(CN1C(=O)c2ccccc2C1=O)C(O)C(=O)O (stereo not drawn) [CBK286582] — lower, 82.3%
- COc1ccc(-c2cc(NC(=S)NC(=O)/C=C/c3ccccc3)[nH]n2)cc1 [CBK007190] — higher, 97.9%
- CCC(CN1CCCC1)n1cncc1-c1cn(C)nc1C (stereo not drawn) [CBK281459] — higher, 102%
- O=C(CSCc1ccc([N+](=O)[O-])cc1)Nc1c[nH]c(=O)[nH]c1=O [CBK268549] — higher, 98.5%
- CSc1ccc(CNC(=O)c2ccc(Cl)cc2)s1 [CBK057705] — lower, 89.4%
- COc1cc(CNCCO)cc(Br)c1OCc1cccnc1 [CBK269681C] — higher, 100%
- CCc1ccc(CN(C)C(=O)COC(=O)c2cc(-c3ccccc3)nc3onc(C)c23)cc1 [CBK295334] — lower, 89.5%
- COc1cc(/C=N/NC(=O)c2ccccn2)ccc1OC(=O)c1cccc2ccccc12 [CBK262110] — higher, 94.4%
- Clc1cccc(-n2cnnn2)c1Cl [CBK027665] — lower, 77.7%
- Fc1ccc(-c2nccnc2OCc2ccc3c(c2)OCO3)cc1 [CBK106896] — higher, 93.3%
- N=C(N)NC(=N)NCCc1c[nH]c2ccccc12 [CBK267706G] — lower, 89.3%
- CC(Oc1ccc(F)cc1)C(=O)N(C)CC1(C)COC1 (stereo not drawn) [CBK281702] — lower, 89.7%
- COc1ccccc1CN(CN1C(=O)c2ccccc2C1=O)CN1C(=O)c2ccccc2C1=O [CBK265039] — higher, 94.9%
- CNC(=O)CN1C(=O)CC2(C1=O)C(=O)N(CCOC)c1ccc(C)cc12 (stereo not drawn) [CBK075401] — higher, 97.1%
- Cn1cc(C(=O)N2CCOCC2c2nc(-c3cccs3)no2)cn1 (stereo not drawn) [CBK305422] — higher, 113%
- CCCC/C=C/c1cncc(NCCc2c[nH]c3ccccc23)n1 [CBK066081] — higher, 100%
- CC(NC(=O)Nc1ccc(C(=O)NC(C)(C)C)cc1)c1cccc(Cl)c1 (stereo not drawn) [CBK298265] — lower, 87.8%
- O=C(CN1CCCC1)N1CCC(c2cccc(Cc3ccc(C(F)(F)F)cc3)n2)CC1 [CBK286215] — higher, 106%
- CC(C)(CO)CNc1cncc(-c2cccnc2)n1 [CBK037881] — lower, 89.8%
- CCc1[nH]c2ccc(C(=O)NCCn3ccnc3C)cc2c1C [CBK282505] — higher, 96.4%
- O=C(/C=C/c1ccccc1Cl)NCCc1ccccc1 [CBK261794] — higher, 97.5%
- COc1ccc(C(=O)Nc2nc(-c3ccc4c(c3)OCCO4)cs2)cc1OC [CBK287588] — lower, 92.5%
- CCC(CCO)CNc1ncnc2ccc(S(C)(=O)=O)cc12 (stereo not drawn) [CBK305157] — lower, 84%
- CNC(=O)CC1CCN(c2cc(C#N)ccc2C(F)(F)F)CC1 [CBK306450] — higher, 112%
- CC(=O)NC1(c2ccccc2)CCN(CC(O)c2ccccc2)CC1 (stereo not drawn) [CBK284819] — higher, 107%
- COc1ccc2[nH]c(C(=O)O)c(CCC(=O)O)c2c1 [CBK266582] — higher, 98.1%
- FC(F)(F)c1nnc(-c2cc3sccc3s2)o1 [CBK006303] — higher, 96.4%
- Cn1c(=O)c2c(nc(N3CCOCC3)n2CCC/N=C2\CCCCN2)n(C)c1=O [CBK218356] — higher, 105%
- N#C/C(=C/c1ccc(-c2cc(C(=O)O)cc(C(=O)O)c2)o1)c1nc2ccccc2s1 [CBK266754] — higher, 103%
- CN(C(=S)NCc1ccccc1)C1CC[C@@]2(c3ccc(F)cc3)CCN(C)[C@H]2C1 (stereo partly drawn) [CBK003500C] — lower, 90.1%
- CCOC(=O)C1(C2CCCCC2)CCN(C(=O)CCSC)CC1 [CBK136929] — higher, 113%
- Cc1cc(OCC(=O)N(C)C)c2c3c(c(=O)oc2c1)CCCC3 [CBK307189] — higher, 96.3%
